For 33 compounds, IC50 results are on record in US8912202B2, “N-(benzimimdazol-2-yl)-cyclopropane carboxamides as lysophosphatidic acid antagonists” (Merck Patent GmbH, priority 2011, dated 2014).

In this assay the target is T1, LPA2R (Homo sapiens, UniProt Q9HBW0).
T1 construct: expressed in transfected cells; host or cells: U2OS
The assay can be described thus: LPA2R-Calciumflux assay (FLIPR, intracellular calcium mobilisation after LPA). The assay is classed as cell-based. Particulars: U2OS cells recombinant expressing LPA2R; antagonism of LPA-induced calcium flux; racemate of the two trans enantiomers unless marked enantiomer. An excerpt:
The assay detects intra cellular calcium which is generated by cells upon activation of the LPA2 receptor by its ligand LPA. This transient calcium mobilization can be monitored using a commercial calcium detection kit (e.g. from Molecular Devices). The main component of such a kit is a dye, which becomes fluorescent when calcium is present—a transient fluorescence signal after addition of a ligand to a test well are the result. Readers like the FLIPR (Molecular Devices) can be used to monitor such transient “Ca-flux” signals.
The signals are calculated according to peak maximum minus base line.
Compounds which are antagonists of LPA lead to a decreased mobilisation of intracellular calcium and thus to a lower signal. The assay is performed in microplates (384 wells per plate).
LPA2R-Calciumflux Assay Protocol
The assay is run according to the following procedure:
50 uL seed cells (10000 cells/well in DMEM buffer)
• Incubate 24 h at 37° C., 10% CO2 • aspirate medium 50 uL add calcium dye 1×HBSS/HEPES buffer • incubate 1 h at 37° C. (“loading”) • equilibrate 10 min at RT 5 uL add compounds in HEPES buffer • shake 10 sec. at 1000 rpm • incubate 15 min at RT 20 uL add LPA (in the FLIPR Tetra) in Krebs-buffer/BSA & measurement
The cells are seeded in DMEM buffer (DMEM, 10% FCS, 10 mM HEPES, 1% Pen/Strep).
Dye loading is done in HBSS/HEPES buffer (100 mL 10×HBSS+20 mL 1M HEPES+880 mL water, pH 7.4)
The LPA is added in Krebs/BSA buffer (120 mM NaCl, 5 mM KCl, 0.62 mM MgSO4, 1.8 mM CaCl2, 10 mM HEPES, 6 mM D(+)-Glucose, 0.2% BSA, pH 7.4).
The compounds are pre-diluted in HEPES buffer (20 mM, pH 7.4), whereby the final DMSO content in the assay is kept at 1%. The compounds are pre-diluted in order to generate dose response series on the microplates. The dose response series consist of 10 concentrations for each compound from 30 uM final to 1 nM final. From all compound wells the resulting signals are referred to control wells (located on each plate besides the compound wells) in terms of % activity.
From these % activity values—along with the corresponding compound concentrations—IC50 values are fitted for each compound using standard fitting programs such as Graphpad Prism. Here the method “log(inhibitor) vs. response—Variable slope” is used.

T1 sequence (Q9HBW0 whole entry): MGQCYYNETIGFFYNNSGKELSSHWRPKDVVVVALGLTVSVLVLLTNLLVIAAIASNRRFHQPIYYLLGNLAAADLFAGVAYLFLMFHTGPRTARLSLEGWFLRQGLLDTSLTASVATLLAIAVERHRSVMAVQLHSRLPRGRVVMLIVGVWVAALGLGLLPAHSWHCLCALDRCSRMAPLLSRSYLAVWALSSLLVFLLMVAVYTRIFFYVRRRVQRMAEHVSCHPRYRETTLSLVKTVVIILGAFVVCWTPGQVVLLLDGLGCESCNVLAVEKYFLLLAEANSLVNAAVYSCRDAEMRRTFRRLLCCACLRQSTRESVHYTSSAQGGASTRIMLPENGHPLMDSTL

One may read the IC50 as the concentration that gives 50% inhibition. On to `O=C(Nc1nc2ccc(Cl)cc2[nH]1)C1C(c2ccccc2)C1(F)F` (racemic) [2,2-Difluoro-3-phenyl-cyclopropane-carboxylic acid (6-chloro-1H-benzoimidazol-2-yl)-amide], for which the IC50 lay in the range of 10 to 100 nM.

As to `O=C(Nc1nc2cc(Br)cnc2[nH]1)[C@H]1C[C@@H]1c1ccccc1` [(1S,2S)-2-Phenyl-cyclopropanecarboxylic acid (6-bromo-3H-imidazo[4,5-b]pyridin-2-yl)-amide], the IC50 lay in the range of 10 to 100 nM.

In the case of `CCCS(=O)(=O)c1ccc2[nH]c(NC(=O)C3CC3c3ccccc3)nc2c1` (racemic) [2-Phenyl-cyclopropane-carboxylic acid [5-(propane-1-sulfonyl)-1H-benzoimidazol-2-yl]-amide], the IC50 fell in the range of 1000 to 10000 nM.

In the case of `O=C(Nc1nc2ccccc2[nH]1)C1CC1c1ccccc1Cl` (single isomer, unassigned; enantiomer-2) [drawing 75, enantiomer-2-(2-Chloro-phenyl)-cyclopropane-carboxylic acid (1H-benzoimidazol-2-yl)-amide], the IC50 lay within 10 to 100 nM.

Turning to `O=C(Nc1nc2ccccc2[nH]1)C1CC1c1ccccc1Cl` (racemic) [2-(2-Chloro-phenyl)-cyclopropane-carboxylic acid (1H-benzoimidazol-2-yl)-amide], the IC50 was in the range of 10 to 100 nM.

`CC1(C)C(C(=O)Nc2nc3ccc(C(F)(F)F)cc3[nH]2)C1c1ccccc1` (racemic) [2,2-Dimethyl-3-phenyl-cyclopropane-carboxylic acid (6-trifluoromethyl-1H-benzoimidazol-2-yl)-amide]: the IC50 was over 10000 nM.

`NCc1ccc2[nH]c(NC(=O)C3CC3c3ccccc3)nc2c1` (racemic) [2-Phenyl-cyclopropane-carboxylic acid (5-aminomethyl-1H-benzoimidazol-2-yl)-amide]: the IC50 is 1000 to 10000 nM.

`Cc1ccc(C2CC2C(=O)Nc2nc3ccccc3[nH]2)cc1` (racemic) [2-p-Tolyl-cyclopropane-carboxylic acid (1H-benzoimidazol-2-yl)-amide]: the IC50 lay within 1000 to 10000 nM.

As for `O=C(Nc1nc2cncnc2[nH]1)C1CC1c1ccccc1` (racemic) [2-Phenyl-cyclopropane-carboxylic acid (9H-purin-8-yl)-amide], the IC50 lay in the range of 1000 to 10000 nM.

As to `O=C(Nc1n[nH]c2ccccc12)C1CC1c1ccccc1` (racemic) [2-Phenyl-cyclopropane-carboxylic acid (1H-indazol-3-yl)-amide], the IC50 is over 10000 nM.

With `O=C(Nc1nc2ccccc2[nH]1)C1CC1c1ccccc1Cl` (single isomer, unassigned) [enantiomer-2-(2-Chloro-phenyl)-cyclopropane-carboxylic acid (1H-benzoimidazol-2-yl)-amide], the IC50 lay in the range of 10 to 100 nM.

On to `N#Cc1ccc2nc(NC(=O)C3CC3c3ccccc3)[nH]c2c1` (single isomer, unassigned; enantiomer-2) [drawing 71, enantiomer-2-Phenyl-cyclopropane-carboxylic acid (6-cyano-1H-benzoimidazol-2-yl)-amide], for which the IC50 fell in the range of 10 to 100 nM.

Turning to `O=C(Nc1nc2ccccc2[nH]1)C1CC1c1cc(Br)ccc1F` (racemic) [2-(5-Bromo-2-fluoro-phenyl)-cyclopropane-carboxylic acid (1H-benzoimidazol-2-yl)-amide], the IC50 lay in the range of 10 to 100 nM.

`O=C(Nc1nc2ccccc2[nH]1)C1CC1c1c(Cl)cccc1Cl` (racemic) [2-(2,6-Dichloro-phenyl)-cyclopropane-carboxylic acid (1H-benzoimidazol-2-yl)-amide]: the IC50 is over 10000 nM.

Turning to `O=C(Nc1nc2ccnc(Cl)c2[nH]1)C1CC1c1ccccc1` (single isomer, unassigned; enantiomer-2) [enantiomer-2-Phenyl-cyclopropane-carboxylic acid (4-chloro-3H-imidazo[4,5-c]pyridin-2-yl)-amide], the IC50 was in the range of 10 to 100 nM.

Consider `O=C(Nc1nc2ccc(Cl)cc2[nH]1)C1CC1c1ccccc1Cl` (single isomer, unassigned; enantiomer-2) [enantiomer-2-(2-Chloro-phenyl)-cyclopropane-carboxylic acid (6-chloro-1H-benzoimidazol-2-yl)-amide], for which the IC50 is 100 to 1000 nM.

`O=C(Nc1nc2cccnc2[nH]1)C1CC1c1ccccc1` (racemic) [2-Phenyl-cyclopropane-carboxylic acid (3H-imidazo[4,5-b]pyridin-2-yl)-amide]: the IC50 was 10 to 100 nM.

For the compound `O=C(Nc1nc2ccccc2[nH]1)C1C(c2ccccc2)C1(F)F` (racemic) [2,2-Difluoro-3-phenyl-cyclopropane-carboxylic acid (1H-benzoimidazol-2-yl)-amide], the IC50 lay within 100 to 1000 nM.

On to `O=C(O)c1ccc2[nH]c(NC(=O)C3CC3c3ccccc3)nc2c1` (racemic) [2-[(2-Phenyl-cyclopropane-carbonyl)-amino]-1H-benzoimidazole-5-carboxylic acid], for which the IC50 was over 10000 nM.

`O=C(Nc1nc2ccccc2[nH]1)C1CC1c1cccc([N+](=O)[O-])c1` (racemic) [2-(3-Nitro-phenyl)-cyclopropane-carboxylic acid (1H-benzoimidazol-2-yl)-amide]: the IC50 was in the range of 10 to 100 nM.

For `CCc1ccc2[nH]c(NC(=O)C3CC3c3ccccc3)nc2c1` (racemic) [2-Phenyl-cyclopropane-carboxylic acid (5-ethyl-1H-benzoimidazol-2-yl)-amide], the IC50 lay in the range of 10 to 100 nM.

Consider `CC1(C)C(C(=O)Nc2nc3ccc(C#N)cc3[nH]2)C1c1ccccc1` (racemic) [2,2-Dimethyl-3-phenyl-cyclopropane-carboxylic acid (6-cyano-1H-benzoimidazol-2-yl)-amide], for which the IC50 was over 10000 nM.

Regarding `N#Cc1ccc2nc(NC(=O)C3CC3c3ccccc3)[nH]c2c1` (racemic) [2-Phenyl-cyclopropane-carboxylic acid (5-cyano-1H-benzoimidazol-2-yl)-amide], the IC50 was in the range of 10 to 100 nM.

For the compound `O=C(Nc1nc2cc(Br)cnc2[nH]1)C1CC1c1ccccc1` (racemic) [2-Phenyl-cyclopropane-carboxylic acid (6-bromo-3H-imidazo[4,5-b]pyridin-2-yl)-amide], the IC50 was under 10 nM.

As for `O=C(Nc1nc2cc(Cl)ccc2[nH]1)C1CC1c1ccccc1` (racemic) [2-Phenyl-cyclopropane-carboxylic acid (6-chloro-1H-benzoimidazol-2-yl)-amide], the half-inhibitory concentration (IC50) was 10 to 100 nM.

Take `COC(=O)c1cccc2nc(NC(=O)C3CC3c3ccccc3Cl)[nH]c12` (single isomer, unassigned; enantiomer-2) [enantiomer-2-{[2-(2-Chloro-phenyl)-cyclopropane-carbonyl]-amino}-3H-benzoimidazole-4-carboxylic acid methyl ester]: the IC50 was over 10000 nM.

For `N#Cc1cccc(C2CC2C(=O)Nc2nc3ccccc3[nH]2)c1` (racemic) [2-(3-Cyano-phenyl)-cyclopropane-carboxylic acid (1H-benzoimidazol-2-yl)-amide], the IC50 was 100 to 1000 nM.

Regarding `Cc1cccc2nc(NC(=O)C3CC3c3ccccc3)[nH]c12` (racemic) [2-Phenyl-cyclopropane-carboxylic acid (7-methyl-1H-benzoimidazol-2-yl)-amide], the half-inhibitory concentration (IC50) lay within 100 to 1000 nM.

On to `CC(C)(C)OC(=O)NCc1ccc2[nH]c(NC(=O)C3CC3c3ccccc3)nc2c1` (racemic) [{2-[(2-Phenyl-cyclopropane-carbonyl)-amino]-1H-benzoimidazol-5-ylmethyl}-carbamic acid tert-butyl ester], for which the IC50 is 100 to 1000 nM.

As to `O=C(Nc1nc2ccccc2[nH]1)C1CC1c1ccccc1` (single isomer, unassigned; enantiomer-2) [drawing 58, enantiomer-2-Phenyl-cyclopropane-carboxylic acid (1H-benzoimidazol-2-yl)-amide], the concentration for half-maximal inhibition (IC50) lay within 1000 to 10000 nM.

As to `O=C(Nc1nc2ccccc2[nH]1)C1CC1c1ccccc1` (racemic) [2-Phenyl-cyclopropane-carboxylic acid (1H-benzoimidazol-2-yl)-amide], the IC50 was 10 to 100 nM.

As to `O=C(Nc1nc2cc(Cl)cnc2[nH]1)C1CC1c1cccc(F)c1` (racemic) [2-(3-Fluoro-phenyl)-cyclopropane-carboxylic acid (6-chloro-3H-imidazo[4,5-b]pyridin-2-yl)-amide], the IC50 is under 10 nM.

As for `CC1(C)C(C(=O)Nc2nc3ccc(Cl)cc3[nH]2)C1c1ccccc1` (racemic) [2,2-Dimethyl-3-phenyl-cyclopropane-carboxylic acid (6-chloro-1H-benzoimidazol-2-yl)-amide], the IC50 was over 10000 nM.
